The values below come from US7507742B2, “Spirocyclic derivatives” (Pfizer Inc., priority 2005, dated 2009).

A short description of data set [1]: Human hepatic metabolic stability in cryopreserved human hepatocytes. The format is in vitro ADME. As to conditions: human, hepatocytes, pH 7.4. Here is the method:
(§1) The human hepatic metabolic stability of the compounds of Examples 1-7 of the present application were assessed in the model described below. The compound of Example 75 of WO 02/074754, 5′-carboxypropoxy-8′-chloro-spiro[cyclohexane-1-4′-(3′,4′-dihydro)quinazolin]-2′(1′H)-one (hereinafter “Compound A”), which is believed to represent the closest state of the art, was used as a comparison.
(§2) Hepatocytes are used as an in vitro system to monitor hepatic metabolism as these intact cells contain all the hepatic enzymes found in vivo, including phase I enzymes, such as cytochrome P450 oxidases (CYPs), aldehyde oxidases and monoamine oxidases (MAOs), and phase 11 enzymes, such as UDP-glucuronyltransferases and sulfotransferases. Cryopreserved human hepatocytes are prepared from 5 donors and suspended in Williams' E media. 4-(2-hydroxyethyl)-1-piperazineethanesulfonic acid (HEPES) is added to a final concentration of 50 mM and pH is adjusted to 7.4. Test substrates are dissolved in DMSO are added to the hepatocytes to give a substrate concentration of 1 μM, with a final DMSO concentration in the incubation below 0.1%. The experiments are performed in 96 or 384 well plates at 37° C., with a hepatocyte density of 0.5 million viable cells/mL. Sampling times of 10, 20, 30, 60, 90, and 120 minutes are used and analytical quantitation is by LC-MS/MS. The intrinsic clearance (apparent) is calculated using the formula: CLint, app=[−slope/0.5 M cells/mL]·1000 μL/mL=μL/min/M cells.
(§3) The human hepatic metabolic stability of the compounds of the present invention was tested according to the above protocol.

The target of another data set is T1, PDE7B (Homo sapiens, UniProt Q9NP56).
T1 construct: carried out using cell lysate containing full length PDE7A and PDE7B enzyme; made in house
T1 sequence (Q9NP56 whole entry, species assumed): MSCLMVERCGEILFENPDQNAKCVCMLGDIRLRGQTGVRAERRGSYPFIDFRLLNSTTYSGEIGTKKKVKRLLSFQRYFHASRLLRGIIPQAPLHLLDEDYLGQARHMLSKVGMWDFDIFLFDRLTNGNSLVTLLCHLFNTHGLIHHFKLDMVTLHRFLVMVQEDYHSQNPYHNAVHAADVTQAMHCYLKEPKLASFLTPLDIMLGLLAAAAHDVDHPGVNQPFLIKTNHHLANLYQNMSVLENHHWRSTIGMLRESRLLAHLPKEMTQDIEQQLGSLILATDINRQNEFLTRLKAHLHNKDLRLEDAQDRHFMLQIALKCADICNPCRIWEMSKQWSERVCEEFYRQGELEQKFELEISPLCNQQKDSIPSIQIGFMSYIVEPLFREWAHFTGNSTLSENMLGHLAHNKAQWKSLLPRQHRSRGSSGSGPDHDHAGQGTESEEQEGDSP
Briefly: PDE7B inhibition, [3H]-cAMP scintillation proximity assay. The format is biochemical. As to conditions: IC50 converted to Ki by Cheng-Prussof equation; cell lysate with full length enzyme, ~25 nM cAMP. As to the method: (§4) The ability of the compounds of formula (I) to inhibit PDE7 may be measured using the following assay protocol.
(§5) PDE7A and PDE7B enzymes catalyse the hydrolysis of 3′,5′-cyclic adenosine monophosphate (cAMP) to the 5′adenosine monophosphate, 5′AMP. In a multiwell plate; PDE enzyme, [^3H]-cAMP and the tested compounds, are incubated at room temperature. The incubation is terminated by addition of commercially available yttrium silicate scintillation proximity assay (SPA) beads containing zinc sulphate. The yttrium silicate beads preferentially bind linear nucleotides, thus the product of the enzyme reaction, [^3H]-5′AMP binds to the bead to produce a light signal, which is detected by a scintillation counter. The amount of signal produced directly correlates with the amount of product formed, and thus the activity of the enzyme. The maximum signal is obtained where enzyme and substrate are incubated alone. The background signal is measured from wells either containing no enzyme, or from wells containing a supra-maximal concentration of a known PDE7A/B inhibitor. Each purified batch of enzyme is quality controlled and its Km, Vmax and specific activity determined from kinetic studies before use in compound inhibition studies. The inhibition of the enzyme, by a test compound, is calculated relative to the maximum and background responses.
(§6) The optimisation of this assay has been carried out using cell lysate containing full length PDE7A and PDE7B enzyme. The concentration of the enzyme in this cell lysate sample is unknown, so the specific activity of the cell lysate is used as a measure to ensure that the same activity per well is used despite any batch-to-batch variation of concentration/activity.
(§7) PDE7 stock enzyme was prepared and kept at −20° C. in appropriately sized aliquots to reduce the number of freeze/thaw cycles. […] PDE7A is diluted to 1/8000 and PDE7B to 1/10000.
(§8) The final assay [cAMP] of ˜25 nM is required, so ˜50 nM [^3H]-cAMP was prepared.
(§9) Compound dilutions and “background” wells were made 30 stronger than required in the assay plate to allow for 1 μl compound to be diluted by 29 μl of other assay components (14 μl enzyme and 15 μl radioligand). Thus for a final assay concentration of 10 μM, the compound must be at 300 μM in the compound addition plate. 4 mM stocks of compound are supplied in 100% DMSO (or are made up @ 4 mM from powder submissions). This requires 1/13.33 dilution in DMSO to be made.
(§10) 1 μl test compound was transferred into a suitable multi-well assay plate immediately prior to reagent assay addition, 14 μl enzyme solution was then added to the assay plate, followed by 15 μl substrate solution (ie: final assay volume 30 μl, with a final screening compound concentration of […]). The plate was then sealed using a plate sealer and incubated at room temperature for 45 min on the plate shaker.
(§11) 30 μl Yttrium Silicate PDE4 SPA beads were then added, ensuring constant stirring of the beads to give even distribution in the assay plate. The plate was then sealed using a plate sealer and incubated at room temperature for 30 mins on the plate shaker. The beads were then allowed to settle for 30 mins, before spinning the plates for 1 min at 200 g.
(§12) The plates were then read on a suitable radioactive counter, for example NXT-TopCount™ (available from Perkin Elmer) using the relevant protocol (30 second read time per well).
(§13) The data was fitted to a sigmoid curve using a least squares algorithm.
(§14) The IC50 value was converted to a K^i value using the Cheng-Prussof equation: […]

The nature of data set [2]: Estimate of human pharmacokinetics by scaling rat unbound clearance. As to conditions: for Clu man: estimated human clearance scaled from rat: Clu rat*(BWman/BWrat)^0.75, 70 kg man, 0.25 kg rat; for half-life: human, T1/2=[ln(2)*Vd]/Cl, Vd in man assumed 0.2 L/kg, read-out: Estimated T1/2 (human half-life) (converted). The source says:
(§15) Based on the above pharmacokinetic data in the rat, the likely human pharmacokinetics of the compounds of Examples 1 and 2, and that of Compound A, can be estimated as follows. • Scaling the unbound rat plasma clearance (Clu rat) observed following intravenous administration to estimate an unbound human plasma clearance (Clu man) using the following relationship: Clu man=Clu rat*(BWman/BWrat)^0.75 where BWman & BWrat are the average body weights of man (70 kg) and rat (0.25 kg) respectively, and units of clearance are in ml/min. • Converting Clu man to estimate total blood clearance in man (Clman): Clman=[(Clu man)*fup]/B:P where fup is the free fraction of unbound drug in plasma and B:P is the blood to plasma ratio in human blood. • An estimate of human half-life is presented for each compound, derived using the relationship: T1/2=[In(2)*Vd]/Cl where T1/2 is the estimated human half-life in hours, Vd is the volume of distribution in man (assumed to be 0.2 L/kg, due to the physicochemistry of this series) and Cl is the human clearance.

The next data set concerns the target T2, PDE7A (Homo sapiens, UniProt Q13946).
T2 construct: carried out using cell lysate containing full length PDE7A and PDE7B enzyme; made in house
Briefly: PDE7A inhibition, [3H]-cAMP scintillation proximity assay. As to conditions: IC50 converted to Ki by Cheng-Prussof equation; cell lysate with full length enzyme, ~25 nM cAMP. The format is biochemical. As to the method:
as §4, §5, §6, §7, §8, §9, §10, §11, §12, §13, §14

The nature of data set [3]: Fraction unbound in rat plasma. The format is in vitro ADME. As to conditions: for fraction unbound: read-out: fup (fraction unbound in rat plasma).
The nature of data set [4]: Blood to plasma ratio in human blood. The format is in vitro ADME. As to conditions: for blood plasma ratio: human, read-out: B:P (blood to plasma ratio).
Description: as §15

A short description of data set [5]: Free fraction of unbound drug in plasma used for the human estimate. The format is in vitro ADME. As to conditions: Table 7, used to convert Clu man to Clman; for fraction unbound: human, plasma, read-out: fup (free fraction of unbound drug in plasma).
Description: as §15

The next data set can be described thus: Rat IV pharmacokinetics. The format is in vivo. Here is the method:
The pharmacokinetic properties of the compounds of Examples 1 and 2 were tested in the rat model described below. The compound of Example 75 of WO 02/074754, 5′-carboxypropoxy-8′-chloro-spiro[cyclohexane-1-4′-(3′,4′-dihydro)quinazolin]-2′(1′H)-one (hereinafter “Compound A”), which is believed to represent the closest state of the art, was used as a comparison.
The test compounds were administered to male rats (each rat receiving one compound), via the tail vein, at a dose of 1 mg/kg (0.08 mg/kg for the compound of Example 1). Blood samples were withdrawn from the rats via a surgically implanted jugular vein cannula at predetermined time-points after administration, and centrifuged to produce plasma. Plasma samples were analysed via a specific LC-MS/MS assay for the quantification of drug in plasma. The resulting plasma concentration-time curves were interrogated using a non-compartmental pharmacokinetic analysis in order to understand the disposition of each compound. The resulting output was subsequently used to estimate the likely human pharmacokinetic profile, as described below.
The mean, dose normalised, pharmacokinetic profiles of the compounds of Examples 1 and 2, as well as that of Compound A, following 1 mg/kg intravenous administration are shown in Table 6 below and in FIG. 1.

Another data set has as its system Human Hepatocytes. Briefly: Human hepatic metabolic stability in cryopreserved human hepatocytes. The format is in vitro ADME. As to conditions: intrinsic clearance (apparent); 1 μM substrate, 0.5 million viable cells/mL, 37° C., 5 donors. As to the method:
as §1, §2, §3

The mark [6] stands for this setting: male rats, intravenous 1 mg/kg (0.08 mg/kg for Example 1).

T2 sequence (Q13946 whole entry, species assumed): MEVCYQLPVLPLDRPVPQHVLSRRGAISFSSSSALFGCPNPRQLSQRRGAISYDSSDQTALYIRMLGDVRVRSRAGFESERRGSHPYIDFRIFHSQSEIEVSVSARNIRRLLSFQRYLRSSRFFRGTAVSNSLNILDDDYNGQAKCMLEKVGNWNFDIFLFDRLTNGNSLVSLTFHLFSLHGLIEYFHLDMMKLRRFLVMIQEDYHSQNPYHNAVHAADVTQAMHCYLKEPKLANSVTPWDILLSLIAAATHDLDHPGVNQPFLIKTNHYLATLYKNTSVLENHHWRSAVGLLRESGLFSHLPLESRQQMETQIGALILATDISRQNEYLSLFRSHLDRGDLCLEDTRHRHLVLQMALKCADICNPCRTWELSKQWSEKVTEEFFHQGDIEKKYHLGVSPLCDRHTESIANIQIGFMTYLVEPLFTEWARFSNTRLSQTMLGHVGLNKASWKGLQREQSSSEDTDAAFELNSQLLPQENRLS

`O=C1Nc2c(Cl)ccc(O[C@H]3C[C@@H](C(=O)O)C3)c2C2(CCCCC2)N1` [Example 1, Cis-3-[(8′-chloro-2′-oxo-2′,3′-dihydro-1′H-spiro[cyclohexane-1,4′-quinazolin]-5′-yl)oxy]cyclobutanecarboxylic acid] gave a hepatocyte CLint at 1 μM in data set [1] of under 5 µL/min/1e6 cells. On PDE7B, this compound yielded a Ki of 4.6 nM. In data set [2], the Clu man was 0.8 mL/min/kg and the half-life is 3 h. Besides, at PDE7A, the Ki is 1.9 nM. In data set [3], the fraction unbound was 0.07. The blood plasma ratio in [4] was 0.6. Also, the fraction unbound in data set [5] is 0.07. Also, in “Rat IV pharmacokinetics” (male, rat, in vivo, iv), the “Clu (unbound rat plasma clearance)” value was found to be 27 mL/min/kg, the Clu rat was 27 mL/min/kg, the clearance is 1.9 mL/min/kg and the half-life is 4 h. Besides, in “Rat IV pharmacokinetics” (rat, in vivo, iv), the Vd (volume of distribution in rat) worked out at 0.6 L/kg.
Take `O=C1Nc2c(F)ccc(OCC3(C(=O)O)CCC3)c2C2(CCCCC2)N1` [Example 5, 1-[(8′-fluoro-2′-oxo-2′,3′-dihydro-1′H-spiro[cyclohexane-1,4′-quinazolin]-5′-yl)oxymethyl]cyclobutanecarboxylic acid]: in [1], the intrinsic clearance (hepatocyte CLint) at 1 μM was under 5 µL/min/1e6 cells. Moreover, the inhibitory constant (Ki) on PDE7B was 1420 nM; on PDE7A, 276 nM.
In [1], `N#Cc1ccc(O[C@H]2C[C@H](C(=O)O)C2)c2c1NC(=O)NC21CCCCC1` [Example 4, trans-3-[(8′-cyano-2′-oxo-2′,3′-dihydro-1′H-spiro[cyclohexane-1,4′-quinazolin]-5′-yl)oxy]cyclobutanecarboxylic acid] yielded a hepatocyte CLint at 1 μM of under 5 µL/min/1e6 cells. In addition, the Ki at PDE7B is 144 nM; at PDE7A, 11.6 nM.
The corresponding values for `O=C1Nc2c(F)ccc(OCC3CC(C(=O)O)C3)c2C2(CCCCC2)N1` (centres unmarked) [Example 3, 3-[(8′-fluoro-2′-oxo-2′,3′-dihydro-1′H-spiro[cyclohexane-1,4′-quinazolin]-5′-yl)oxymethyl]cyclobutanecarboxylic acid] are under 5 µL/min/1e6 cells, 108 nM and 15.6 nM.
For `O=C1Nc2c(Cl)ccc(O[C@H]3C[C@H](C(=O)O)C3)c2C2(CCCCCC2)N1` [Example 6, Trans-3-[(8′-chloro-2′-oxo-2′,3′-dihydro-1′H-spiro[cycloheptyl-1,4′-quinazolin]-5′-yl)oxy]cyclobutanecarboxylic acid], the hepatocyte CLint at 1 μM in data set [1] is under 5 µL/min/1e6 cells. Besides, the affinity on PDE7B, expressed as Ki, was 17.6 nM.
Consider `O=C(O)CCCOc1ccc(Cl)c2c1C1(CCCCC1)NC(=O)N2` [Compound A, 5′-carboxypropoxy-8′-chloro-spiro[cyclohexane-1-4′-(3′,4′-dihydro)quinazolin]-2′(1′H)-one, reference compound], for which the “Human Hepatocytes CLint” value in the data set with Human Hepatocytes came out at 25 μL/min/M cells. Moreover, the Clu man in [2] is 1.9 mL/min/kg. Besides, the “fup (fraction unbound in rat plasma)” value in data set [3] worked out at 0.045. Further, the “B:P (blood to plasma ratio)” value in [4] was 0.6. In addition, in data set [5], the “fup (free fraction of unbound drug in plasma)” value is recorded as 0.03. In “Rat IV pharmacokinetics” (Clu = Cl/fup, male rats, intravenous), the “Clu (unbound rat plasma clearance)” value turned out to be 156 mL/min/kg. Also, in the data set “Rat IV pharmacokinetics” (setting [6]), the “T1/2 (half life)” value was under 1 h and the Vd (volume of distribution in rat) came out at 0.4 L/kg. In addition, the “Cl (rat clearance)” value in the data set “Rat IV pharmacokinetics” (male rats, intravenous 1 mg/kg (0.08 mg/kg for Example 1), mean, dose normalised) came to 7 mL/min/kg. In the data set “Rat IV pharmacokinetics” (unbound rat plasma clearance after intravenous administration, as repeated in Table 7), the Clu rat is 156 mL/min/kg.
In data set [1], `O=C1Nc2c(Cl)ccc(O[C@H]3C[C@H](C(=O)O)C3)c2C2(CCCC2)N1` [Example 7, Trans-3-[(8′-chloro-2′-oxo-2′,3′-dihydro-1′H-spiro[cyclopentyl-1,4′-quinazolin]-5′-yl)oxy]cyclobutanecarboxylic acid] had a hepatocyte CLint at 1 μM of under 5 µL/min/1e6 cells. Also, the Ki on PDE7B amounted to 140 nM; on PDE7A, 19.8 nM.
The compound `O=C1Nc2c(Cl)ccc(O[C@H]3C[C@H](C(=O)O)C3)c2C2(CCCCC2)N1` [Example 2] showed a hepatocyte CLint at 1 μM in data set [1] of under 5 µL/min/1e6 cells. The compound also registered a Ki at PDE7B of 13.4 nM. In addition, in [2], the Clu man was 0.2 mL/min/kg and the half-life was 10 h. The same compound came in with a Ki at PDE7A of 3.1 nM. Moreover, the fraction unbound in [3] came out at 0.1. The blood plasma ratio in data set [4] was 0.7. Moreover, the unbound share (fraction unbound) in [5] is 0.01. In addition, in the data set “Rat IV pharmacokinetics” (male, rat, in vivo, iv), the “Clu (unbound rat plasma clearance)” value came to 70 mL/min/kg, the Clu rat is 70 mL/min/kg, the clearance stood at 0.7 mL/min/kg and the half-life was 11 h. In the data set “Rat IV pharmacokinetics” (rat, in vivo, iv), this compound came in with a Vd (volume of distribution in rat) of 0.7 L/kg.
